In PubChem BioAssay (NCI):
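48-hour exposure; five concentrations; linearly interpolated endpoints. TGI marks complete inhibition of growth.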

Experiments:
Experiment in all cases: NCI-60 cell line screen, 48 h
[1] = test system: 786-0 renal
[2] = test system: A549 NSCLC
[3] = test system: ACHN renal
[4] = test system: CAKI-1 renal
[5] = test system: CCRF-CEM leukemia
[6] = test system: COLO 205 colon
[7] = test system: DLD-1 colon
[8] = test system: DMS 114 small cell lung
[9] = test system: DMS 273 small cell lung
[10] = test system: EKVX NSCLC
[11] = test system: HCC-2998 colon
[12] = test system: HCT-116 colon
[13] = test system: HCT-15 colon
[14] = test system: HL-60(TB) leukemia
[15] = test system: HOP-18 NSCLC
[16] = test system: HOP-62 NSCLC
[17] = test system: HOP-92 NSCLC
[18] = test system: HT29 colon
[19] = test system: IGROV1 ovarian
[20] = test system: K-562 leukemia
[21] = test system: KM12 colon
[22] = test system: KM20L2 colon
[23] = test system: LXFL 529 NSCLC
[24] = test system: M14 melanoma
[25] = test system: M19-MEL melanoma
[26] = test system: MALME-3M melanoma
[27] = test system: MOLT-4 leukemia
[28] = test system: NCI-H226 lung
[29] = test system: NCI-H23 lung
[30] = test system: NCI-H460 lung
[31] = test system: NCI-H522 lung
[32] = test system: OVCAR-3 ovarian
[33] = test system: OVCAR-4 ovarian
[34] = test system: OVCAR-5 ovarian
[35] = test system: OVCAR-8 ovarian
[36] = test system: RXF-631 renal
[37] = test system: SF-268 CNS
[38] = test system: SF-295 CNS
[39] = test system: SF-539 CNS
[40] = test system: SK-MEL-28 melanoma
[41] = test system: SK-MEL-5 melanoma
[42] = test system: SK-OV-3 ovarian
[43] = test system: SN12C renal
[44] = test system: SNB-19 CNS
[45] = test system: SNB-75 CNS
[46] = test system: SNB-78 CNS
[47] = test system: SR leukemia
[48] = test system: SW-620 colon
[49] = test system: TK-10 renal
[50] = test system: U251 CNS
[51] = test system: UACC-257 melanoma
[52] = test system: UACC-62 melanoma
[53] = test system: UO-31 renal
[54] = test system: A498 renal
[55] = test system: LOX IMVI melanoma
[56] = test system: RPMI-8226 leukemia
[57] = test system: RXF 393 renal
[58] = test system: SK-MEL-2 melanoma

In the case of `COc1cc(C(=O)C(CO)Oc2ccccc2OC)ccc1O` (stereo unspecified), the TGI [1] is reported as > 100 µM, the TGI [2] is reported as > 100 µM and the TGI [3] is reported as > 100 µM. The TGI [4] was > 100 µM, the TGI [5] was > 100 µM and the TGI [6] was > 100 µM. For the same molecule, the TGI [7] was > 100 µM, the TGI [8] was > 100 µM and the TGI [9] was > 100 µM. For the same molecule, the TGI [10] was > 100 µM, the TGI [11] was > 100 µM and the TGI [12] was > 100 µM. For the same molecule, the TGI [13] was > 100 µM, the TGI [14] was > 100 µM and the TGI [15] was > 100 µM. The TGI [16] was > 100 µM, the TGI [17] was > 100 µM and the TGI [18] was > 100 µM. For the same molecule, the TGI [19] was > 100 µM, the TGI [20] was > 100 µM and the TGI [21] was > 100 µM. For the same molecule, the TGI [22] was > 100 µM, the TGI [23] was > 100 µM and the TGI [24] was > 100 µM. The TGI [25] was > 100 µM, the TGI [26] was > 100 µM and the TGI [27] was > 100 µM. The TGI [28] was > 100 µM, the TGI [29] was > 100 µM and the TGI [30] was > 100 µM. The TGI [31] was > 100 µM, the TGI [32] was > 100 µM and the TGI [33] was > 100 µM. The TGI [34] was > 100 µM, the TGI [35] was > 100 µM and the TGI [36] was > 100 µM. The TGI [37] was > 100 µM, the TGI [38] was > 100 µM and the TGI [39] was > 100 µM. The TGI [40] was > 100 µM, the TGI [41] was > 100 µM and the TGI [42] was > 100 µM. For the same molecule, the TGI [43] was > 100 µM, the TGI [44] was > 100 µM and the TGI [45] was > 100 µM. The TGI [46] was > 100 µM, the TGI [47] was > 100 µM and the TGI [48] was > 100 µM. For the same molecule, the TGI [49] was > 100 µM, the TGI [50] was > 100 µM and the TGI [51] was > 100 µM. The TGI [52] was > 100 µM and the TGI [53] was > 100 µM.

For `COc1ccc(NC(=O)C(=O)NO)c(OC)c1`, the TGI [1] was 29.6 µM, the TGI [54] was 39 µM and the TGI [2] was 35.4 µM. It also gave a TGI [3] of 29.3 µM, a TGI [4] of 27.3 µM and a TGI [5] of 98 µM. For the same molecule, the TGI [6] was 37.7 µM, the TGI [7] was 41 µM and the TGI [8] was 29 µM. It also gave a TGI [9] of 35.3 µM, a TGI [10] of 28.7 µM and a TGI [11] of 35.8 µM. For the same molecule, the TGI [12] was 32.4 µM, the TGI [13] was 31.2 µM and the TGI [14] was 43 µM. The TGI [15] was 31.1 µM, the TGI [16] was 35.1 µM and the TGI [17] was 35.7 µM. For the same molecule, the TGI [18] was 38.1 µM, the TGI [19] was 32 µM and the TGI [20] was 56.4 µM. It also gave a TGI [21] of 34.2 µM, a TGI [22] of 33.3 µM and a TGI [55] of 27.2 µM. The TGI [23] was 30.3 µM, the TGI [24] was 29.9 µM and the TGI [25] was 38.9 µM. It also gave a TGI [26] of 54.6 µM, a TGI [27] of 35.2 µM and a TGI [28] of 41.6 µM. The TGI [29] was 34.1 µM, the TGI [30] was 33.4 µM and the TGI [31] was 19 µM. The TGI [32] was 30.3 µM, the TGI [33] was 37.7 µM and the TGI [34] was 33.6 µM. It also gave a TGI [35] of 33.3 µM, a TGI [56] of 49.1 µM and a TGI [57] of 29.2 µM. For the same molecule, the TGI [36] was 57 µM, the TGI [37] was 32.1 µM and the TGI [38] was 27 µM. For the same molecule, the TGI [39] was 36.3 µM, the TGI [58] was 30.9 µM and the TGI [40] was 33.1 µM. For the same molecule, the TGI [41] was 32.5 µM, the TGI [42] was 33.7 µM and the TGI [43] was 39.6 µM. For the same molecule, the TGI [44] was 28.2 µM, the TGI [45] was 35.3 µM and the TGI [46] was 44.1 µM. For the same molecule, the TGI [47] was 25.9 µM, the TGI [48] was 34.5 µM and the TGI [49] was 37.1 µM. It also gave a TGI [50] of 30.5 µM, a TGI [51] of 38 µM and a TGI [52] of 28.9 µM. The TGI [53] was 29.8 µM.
